Measurements taken from ChEMBL document CHEMBL5291721, “A preclinical secondary pharmacology resource illuminates target-adverse drug reaction associations of marketed drugs” (Nat Commun, 2023).

What was measured:
[1] = target: T1, Alpha-2B adrenergic receptor (Homo sapiens, UniProt P18089)
T1 sequence (P18089 whole entry): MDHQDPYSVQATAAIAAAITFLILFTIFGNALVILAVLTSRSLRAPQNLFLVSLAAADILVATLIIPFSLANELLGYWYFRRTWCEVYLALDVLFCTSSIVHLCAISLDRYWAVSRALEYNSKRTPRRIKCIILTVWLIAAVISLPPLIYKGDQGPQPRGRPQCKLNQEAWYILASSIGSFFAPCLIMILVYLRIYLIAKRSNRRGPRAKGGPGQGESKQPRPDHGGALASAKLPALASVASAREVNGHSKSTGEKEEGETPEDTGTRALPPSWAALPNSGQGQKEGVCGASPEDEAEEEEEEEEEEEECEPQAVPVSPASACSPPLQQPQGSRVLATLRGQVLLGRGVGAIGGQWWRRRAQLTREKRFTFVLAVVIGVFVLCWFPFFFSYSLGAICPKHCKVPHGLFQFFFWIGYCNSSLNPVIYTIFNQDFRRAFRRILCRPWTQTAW

[2] = target: 5-hydroxytryptamine receptor 2A (Homo sapiens, UniProt P28223); assay type: functional, cell-based
[3] = target: T2, Alpha-1A adrenergic receptor (Homo sapiens, UniProt P35348)
T2 sequence (P35348 whole entry): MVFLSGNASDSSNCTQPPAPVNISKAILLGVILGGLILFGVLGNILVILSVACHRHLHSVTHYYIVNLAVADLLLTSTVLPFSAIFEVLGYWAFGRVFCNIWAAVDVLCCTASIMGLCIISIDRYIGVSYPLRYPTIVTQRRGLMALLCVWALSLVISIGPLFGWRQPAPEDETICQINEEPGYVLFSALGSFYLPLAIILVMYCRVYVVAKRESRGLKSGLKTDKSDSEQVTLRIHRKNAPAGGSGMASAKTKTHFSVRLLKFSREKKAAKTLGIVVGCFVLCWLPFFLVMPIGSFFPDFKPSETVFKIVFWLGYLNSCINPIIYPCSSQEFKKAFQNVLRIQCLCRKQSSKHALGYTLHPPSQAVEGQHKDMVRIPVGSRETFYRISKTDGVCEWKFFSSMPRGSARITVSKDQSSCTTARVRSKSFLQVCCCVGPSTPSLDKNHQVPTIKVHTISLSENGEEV

Androgen receptor [4] = target: T3, Androgen receptor (Rattus norvegicus, UniProt P15207); assay type: functional
T3 sequence (P15207 whole entry): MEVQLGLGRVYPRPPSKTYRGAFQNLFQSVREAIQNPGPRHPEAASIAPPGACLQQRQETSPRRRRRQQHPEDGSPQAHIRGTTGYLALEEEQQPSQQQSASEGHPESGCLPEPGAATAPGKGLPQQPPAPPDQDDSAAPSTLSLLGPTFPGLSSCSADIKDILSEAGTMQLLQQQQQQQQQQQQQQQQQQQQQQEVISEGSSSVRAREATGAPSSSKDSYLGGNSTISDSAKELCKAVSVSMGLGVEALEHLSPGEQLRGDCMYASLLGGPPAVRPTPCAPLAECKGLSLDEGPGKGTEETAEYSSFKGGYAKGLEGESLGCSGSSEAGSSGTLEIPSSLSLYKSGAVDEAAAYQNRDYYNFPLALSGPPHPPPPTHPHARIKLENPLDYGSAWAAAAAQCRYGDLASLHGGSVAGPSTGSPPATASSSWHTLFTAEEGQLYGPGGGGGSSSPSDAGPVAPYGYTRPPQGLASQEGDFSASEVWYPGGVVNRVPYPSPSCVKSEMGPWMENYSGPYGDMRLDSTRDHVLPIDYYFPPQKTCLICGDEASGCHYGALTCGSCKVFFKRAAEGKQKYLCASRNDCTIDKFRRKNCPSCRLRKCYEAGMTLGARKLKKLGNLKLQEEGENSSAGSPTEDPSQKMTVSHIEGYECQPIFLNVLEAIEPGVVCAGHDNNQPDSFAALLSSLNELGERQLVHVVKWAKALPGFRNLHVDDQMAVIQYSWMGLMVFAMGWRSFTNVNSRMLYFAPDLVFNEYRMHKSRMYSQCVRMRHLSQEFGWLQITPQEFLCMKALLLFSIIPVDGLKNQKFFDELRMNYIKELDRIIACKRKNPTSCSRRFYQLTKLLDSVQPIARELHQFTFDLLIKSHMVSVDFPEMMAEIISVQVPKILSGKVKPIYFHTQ

[5] = target: T4, Beta-2 adrenergic receptor (Homo sapiens, UniProt P07550)
T4 sequence (P07550 whole entry): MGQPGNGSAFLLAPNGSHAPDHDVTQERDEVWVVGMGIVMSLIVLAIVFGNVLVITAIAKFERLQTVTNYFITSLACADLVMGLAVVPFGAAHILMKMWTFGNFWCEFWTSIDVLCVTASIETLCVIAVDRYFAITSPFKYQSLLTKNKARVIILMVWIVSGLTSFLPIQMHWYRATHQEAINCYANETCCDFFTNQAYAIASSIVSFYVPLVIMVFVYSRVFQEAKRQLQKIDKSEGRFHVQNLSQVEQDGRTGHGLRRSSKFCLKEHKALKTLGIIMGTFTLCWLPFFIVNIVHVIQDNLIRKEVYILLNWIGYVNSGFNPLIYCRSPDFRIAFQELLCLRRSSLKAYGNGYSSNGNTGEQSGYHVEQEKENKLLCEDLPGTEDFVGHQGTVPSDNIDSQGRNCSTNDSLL

[6] = target: Muscarinic acetylcholine receptor M3 (Homo sapiens, UniProt P20309)
Sequence of Muscarinic acetylcholine receptor M3 (P20309 whole entry): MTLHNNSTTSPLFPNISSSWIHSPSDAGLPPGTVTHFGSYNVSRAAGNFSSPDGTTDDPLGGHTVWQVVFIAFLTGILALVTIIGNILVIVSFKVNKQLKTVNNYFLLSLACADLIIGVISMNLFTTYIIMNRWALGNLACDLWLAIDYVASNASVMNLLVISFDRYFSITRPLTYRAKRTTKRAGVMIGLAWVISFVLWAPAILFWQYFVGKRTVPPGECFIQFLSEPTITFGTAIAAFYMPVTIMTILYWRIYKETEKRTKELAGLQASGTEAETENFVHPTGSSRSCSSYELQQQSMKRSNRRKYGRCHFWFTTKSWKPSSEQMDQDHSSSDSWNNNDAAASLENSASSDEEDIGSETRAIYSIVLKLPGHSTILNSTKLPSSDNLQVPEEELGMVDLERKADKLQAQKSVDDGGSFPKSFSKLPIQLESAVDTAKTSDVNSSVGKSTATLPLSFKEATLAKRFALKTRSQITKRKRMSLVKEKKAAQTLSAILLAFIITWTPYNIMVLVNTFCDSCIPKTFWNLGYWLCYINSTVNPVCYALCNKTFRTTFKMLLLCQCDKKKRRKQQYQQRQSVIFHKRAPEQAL

Androgen receptor [7] = target: T3, Androgen receptor; assay type: functional; remark: listed apart in the source
Histamine H3 receptor = Histamine H3 receptor (Homo sapiens, UniProt Q9Y5N1)
Sequence of Histamine H3 receptor (Q9Y5N1 whole entry): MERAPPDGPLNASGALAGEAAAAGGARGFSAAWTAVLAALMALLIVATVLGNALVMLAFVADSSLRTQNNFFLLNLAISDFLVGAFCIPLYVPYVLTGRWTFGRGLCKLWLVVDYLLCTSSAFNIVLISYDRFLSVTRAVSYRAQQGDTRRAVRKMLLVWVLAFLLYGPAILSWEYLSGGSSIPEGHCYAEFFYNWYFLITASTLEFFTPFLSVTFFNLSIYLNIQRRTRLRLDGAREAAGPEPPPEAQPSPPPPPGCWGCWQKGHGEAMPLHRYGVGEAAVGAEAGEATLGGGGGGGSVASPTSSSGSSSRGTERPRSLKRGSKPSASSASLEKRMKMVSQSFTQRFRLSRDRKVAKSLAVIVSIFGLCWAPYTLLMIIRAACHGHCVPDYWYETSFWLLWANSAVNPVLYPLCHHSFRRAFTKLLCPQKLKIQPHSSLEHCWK

Cannabinoid receptor 1 = Cannabinoid receptor 1 (Homo sapiens, UniProt P21554)
Sequence of Cannabinoid receptor 1 (P21554 whole entry): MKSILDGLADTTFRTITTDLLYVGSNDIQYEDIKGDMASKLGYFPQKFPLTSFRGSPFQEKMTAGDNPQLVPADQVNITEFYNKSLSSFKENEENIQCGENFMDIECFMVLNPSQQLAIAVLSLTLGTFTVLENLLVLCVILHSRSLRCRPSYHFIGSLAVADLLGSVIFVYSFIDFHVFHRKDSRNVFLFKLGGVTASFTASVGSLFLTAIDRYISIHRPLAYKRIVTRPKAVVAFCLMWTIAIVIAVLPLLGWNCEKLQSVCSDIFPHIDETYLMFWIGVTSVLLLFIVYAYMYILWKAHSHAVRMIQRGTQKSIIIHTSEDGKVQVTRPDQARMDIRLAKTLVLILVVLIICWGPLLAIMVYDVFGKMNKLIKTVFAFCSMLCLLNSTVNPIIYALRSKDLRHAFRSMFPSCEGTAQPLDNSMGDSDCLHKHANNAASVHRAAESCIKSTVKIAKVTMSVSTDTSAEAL

Mu-type opioid receptor = Mu-type opioid receptor (Homo sapiens, UniProt P35372)
Sequence of Mu-type opioid receptor (P35372 whole entry): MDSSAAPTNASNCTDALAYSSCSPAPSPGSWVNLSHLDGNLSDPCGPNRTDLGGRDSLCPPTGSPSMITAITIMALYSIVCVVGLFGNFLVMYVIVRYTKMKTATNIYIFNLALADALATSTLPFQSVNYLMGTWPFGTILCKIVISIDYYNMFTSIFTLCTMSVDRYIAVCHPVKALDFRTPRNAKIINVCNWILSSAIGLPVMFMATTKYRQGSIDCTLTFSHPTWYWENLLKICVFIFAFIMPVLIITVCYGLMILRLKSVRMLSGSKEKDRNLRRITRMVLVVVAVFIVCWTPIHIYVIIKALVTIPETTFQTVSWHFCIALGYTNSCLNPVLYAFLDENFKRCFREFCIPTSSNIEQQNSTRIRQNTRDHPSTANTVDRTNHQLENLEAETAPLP

Melanocortin receptor 4 = Melanocortin receptor 4 (Homo sapiens, UniProt P32245)
Sequence of Melanocortin receptor 4 (P32245 whole entry): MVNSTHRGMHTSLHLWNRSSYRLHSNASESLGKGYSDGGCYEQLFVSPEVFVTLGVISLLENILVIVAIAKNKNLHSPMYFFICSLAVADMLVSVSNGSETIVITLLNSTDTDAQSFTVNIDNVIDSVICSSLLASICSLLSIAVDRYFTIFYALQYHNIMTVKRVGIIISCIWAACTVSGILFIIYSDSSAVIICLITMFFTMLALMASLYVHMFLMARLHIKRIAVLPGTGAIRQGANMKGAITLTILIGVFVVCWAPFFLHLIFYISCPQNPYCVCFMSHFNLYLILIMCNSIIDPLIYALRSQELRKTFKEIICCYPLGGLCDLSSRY

[8] = target: T4, Beta-2 adrenergic receptor; assay type: functional, cell-based
[9] = target: T5, Gamma-aminobutyric acid receptor subunit alpha-1/alpha-2/beta-2/gamma-2 (Homo sapiens, UniProt P14867+P18507+P47869+P47870); assay type: functional, cell-based
T5 sequence (P14867 whole entry): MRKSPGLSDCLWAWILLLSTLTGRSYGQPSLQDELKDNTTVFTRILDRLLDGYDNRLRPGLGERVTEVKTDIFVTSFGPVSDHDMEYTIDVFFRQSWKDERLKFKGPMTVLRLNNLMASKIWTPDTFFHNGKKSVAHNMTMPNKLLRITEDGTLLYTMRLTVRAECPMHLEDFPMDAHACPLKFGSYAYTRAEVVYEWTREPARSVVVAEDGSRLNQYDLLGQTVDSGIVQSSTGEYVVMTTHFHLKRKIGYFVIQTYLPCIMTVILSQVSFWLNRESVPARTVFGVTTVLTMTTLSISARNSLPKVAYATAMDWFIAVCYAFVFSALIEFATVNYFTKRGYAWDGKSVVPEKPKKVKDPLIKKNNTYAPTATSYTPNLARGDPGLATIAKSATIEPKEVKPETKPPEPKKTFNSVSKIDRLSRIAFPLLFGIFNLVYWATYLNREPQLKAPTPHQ
T5 sequence (P47870 whole entry): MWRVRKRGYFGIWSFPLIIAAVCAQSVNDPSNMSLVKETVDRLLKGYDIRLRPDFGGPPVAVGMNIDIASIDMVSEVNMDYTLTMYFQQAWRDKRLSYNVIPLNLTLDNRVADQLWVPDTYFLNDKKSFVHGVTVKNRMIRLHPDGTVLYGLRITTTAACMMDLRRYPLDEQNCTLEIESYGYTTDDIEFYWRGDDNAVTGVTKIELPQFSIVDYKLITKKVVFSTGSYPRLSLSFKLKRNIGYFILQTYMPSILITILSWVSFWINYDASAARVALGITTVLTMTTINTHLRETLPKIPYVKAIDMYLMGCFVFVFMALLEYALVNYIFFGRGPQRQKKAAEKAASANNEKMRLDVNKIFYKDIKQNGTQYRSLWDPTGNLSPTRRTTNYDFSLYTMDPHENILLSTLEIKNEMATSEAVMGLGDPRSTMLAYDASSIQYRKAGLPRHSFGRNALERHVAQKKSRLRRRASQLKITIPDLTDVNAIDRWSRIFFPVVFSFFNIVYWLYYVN
T5 sequence (P18507 whole entry): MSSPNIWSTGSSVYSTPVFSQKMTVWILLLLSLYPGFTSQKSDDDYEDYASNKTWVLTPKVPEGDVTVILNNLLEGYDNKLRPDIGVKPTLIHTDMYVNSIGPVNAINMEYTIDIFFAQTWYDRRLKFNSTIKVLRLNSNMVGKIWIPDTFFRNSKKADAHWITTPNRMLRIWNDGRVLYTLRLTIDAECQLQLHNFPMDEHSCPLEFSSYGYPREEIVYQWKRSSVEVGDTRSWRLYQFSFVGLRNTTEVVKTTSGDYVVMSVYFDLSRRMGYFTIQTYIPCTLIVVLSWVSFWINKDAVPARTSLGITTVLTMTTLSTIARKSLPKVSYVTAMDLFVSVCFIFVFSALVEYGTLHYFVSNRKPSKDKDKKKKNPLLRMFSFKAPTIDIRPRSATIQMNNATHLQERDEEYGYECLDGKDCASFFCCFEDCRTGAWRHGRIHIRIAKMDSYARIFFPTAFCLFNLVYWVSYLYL
T5 sequence (P47869 whole entry): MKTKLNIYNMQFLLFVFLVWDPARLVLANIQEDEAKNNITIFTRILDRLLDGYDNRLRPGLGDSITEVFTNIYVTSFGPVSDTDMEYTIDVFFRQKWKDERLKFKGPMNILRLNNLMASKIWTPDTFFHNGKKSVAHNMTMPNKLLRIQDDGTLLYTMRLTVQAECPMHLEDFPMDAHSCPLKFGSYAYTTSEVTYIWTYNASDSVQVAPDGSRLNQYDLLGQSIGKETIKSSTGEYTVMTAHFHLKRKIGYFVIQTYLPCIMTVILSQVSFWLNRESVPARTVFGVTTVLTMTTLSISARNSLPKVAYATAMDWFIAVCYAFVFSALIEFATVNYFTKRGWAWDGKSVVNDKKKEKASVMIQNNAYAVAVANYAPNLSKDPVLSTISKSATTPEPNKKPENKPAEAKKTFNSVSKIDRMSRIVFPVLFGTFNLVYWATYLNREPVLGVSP

[10] = target: T5, Gamma-aminobutyric acid receptor subunit alpha-1/alpha-2/beta-2/gamma-2; assay type: functional, cell-based; remark: listed apart in the source
[11] = target: 5-hydroxytryptamine receptor 2B (Homo sapiens, UniProt P41595)
Histamine H2 receptor = Histamine H2 receptor (Homo sapiens, UniProt P25021)
Sequence of Histamine H2 receptor (P25021 whole entry): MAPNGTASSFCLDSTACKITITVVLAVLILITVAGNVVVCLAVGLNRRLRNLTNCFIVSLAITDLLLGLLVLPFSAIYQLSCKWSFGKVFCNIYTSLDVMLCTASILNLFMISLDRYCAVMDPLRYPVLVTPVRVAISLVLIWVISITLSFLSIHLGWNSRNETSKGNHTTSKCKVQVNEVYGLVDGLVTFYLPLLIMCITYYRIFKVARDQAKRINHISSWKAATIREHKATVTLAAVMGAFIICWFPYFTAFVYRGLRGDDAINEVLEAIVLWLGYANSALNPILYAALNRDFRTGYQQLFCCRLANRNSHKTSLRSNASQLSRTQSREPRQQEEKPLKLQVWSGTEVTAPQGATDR
Further: assay procedure not described here.

O=C1C(O)=C([C@H]2CC[C@H](c3ccc(Cl)cc3)CC2)C(=O)c2ccccc21 [ATOVAQUONE]
AC50 [1]: > 30 µM | AC50 [2]: > 30 µM | AC50 [3]: > 30 µM | AC50 (Androgen receptor [4]): > 30 µM | AC50 [5]: > 30 µM | AC50 [6]: > 30 µM | AC50 (Androgen receptor [7]): > 30 µM | AC50 (Histamine H3 receptor): > 30 µM | AC50 (Cannabinoid receptor 1): > 30 µM

COc1ccc(CCNCC(O)COc2cccc(C)c2)cc1OC (stereo not given) [BEVANTOLOL]
AC50 [1]: > 10 µM | AC50 [2]: > 10 µM | AC50 (Mu-type opioid receptor): > 10 µM | AC50 [3]: 1.2 µM | AC50 [6]: > 30 µM | AC50 (Melanocortin receptor 4): > 10 µM | AC50 (Cannabinoid receptor 1): > 10 µM

Brc1c(NC2=NCCN2)ccc2nccnc12 [BRIMONIDINE]
AC50 [8]: > 30 µM | AC50 (Histamine H3 receptor): > 30 µM | AC50 [9]: > 30 µM

CC(CC1c2ccccc2CCc2ccccc21)CN(C)C (stereo not given) [BUTRIPTYLINE]
AC50 [1]: 5 µM | AC50 [2]: > 30 µM | AC50 [10]: > 30 µM | AC50 [8]: > 30 µM | AC50 [6]: 1.4 µM | AC50 [9]: > 30 µM

CC(C)(C)NCC(O)COc1cccc2c1CCC(=O)N2 (stereo not given) [CARTEOLOL]
AC50 [1]: > 10 µM | AC50 [2]: > 10 µM | AC50 (Mu-type opioid receptor): > 30 µM | AC50 [3]: > 10 µM | AC50 [6]: > 30 µM | AC50 (Melanocortin receptor 4): > 10 µM

Nc1nc(Cl)nc2c1ncn2[C@H]1C[C@H](O)[C@@H](CO)O1 [CLADRIBINE]
AC50 [8]: > 30 µM | AC50 (Histamine H3 receptor): > 30 µM | AC50 [9]: > 30 µM

Clc1ccccc1C(c1ccccc1)(c1ccccc1)n1ccnc1 [CLOTRIMAZOLE]
AC50 [11]: > 10 µM | AC50 [3]: > 10 µM | AC50 [8]: > 30 µM | AC50 [5]: 15 µM | AC50 (Histamine H2 receptor): 17.4 µM | AC50 (Histamine H3 receptor): > 10 µM | AC50 (Cannabinoid receptor 1): > 10 µM

COc1ccc2c3c1O[C@H]1[C@@H](O)CC[C@H]4[C@@H](C2)N(C)CC[C@@]341 [DIHYDROCODEINE]
AC50 [1]: > 30 µM | AC50 [2]: > 30 µM | AC50 [10]: > 30 µM | AC50 [8]: > 30 µM | AC50 [6]: > 30 µM | AC50 [9]: > 30 µM

NC(=O)OCC(COC(N)=O)c1ccccc1 [FELBAMATE]
AC50 [1]: > 10 µM | AC50 [2]: > 10 µM | AC50 (Mu-type opioid receptor): > 30 µM | AC50 [3]: > 10 µM | AC50 [5]: > 10 µM | AC50 [6]: > 30 µM | AC50 (Melanocortin receptor 4): > 10 µM | AC50 (Cannabinoid receptor 1): > 10 µM

Fc1ccc(C(c2ccccc2)(c2ccccc2F)n2ccnc2)cc1 (stereo not given) [FLUTRIMAZOLE]
AC50 [1]: > 30 µM | AC50 [2]: > 30 µM | AC50 (Androgen receptor [4]): > 30 µM | AC50 [5]: > 30 µM | AC50 [6]: > 30 µM | AC50 (Androgen receptor [7]): > 30 µM | AC50 (Histamine H3 receptor): > 30 µM

Cc1c(OCC(F)(F)F)ccnc1C[S+]([O-])c1nc2ccccc2[nH]1 (stereo not given) [LANSOPRAZOLE]
AC50 [11]: > 10 µM | AC50 (Mu-type opioid receptor): 4 µM | AC50 [3]: > 10 µM | AC50 [5]: > 10 µM | AC50 (Histamine H2 receptor): 8.52 µM | AC50 (Melanocortin receptor 4): > 30 µM

NC(=O)CN1CC(O)CC1=O (stereo not given) [OXIRACETAM]
AC50 [1]: > 30 µM | AC50 [2]: > 30 µM | AC50 [3]: > 30 µM | AC50 [10]: > 30 µM | AC50 [8]: > 30 µM | AC50 (Androgen receptor [4]): > 30 µM | AC50 [6]: > 30 µM | AC50 (Androgen receptor [7]): > 30 µM | AC50 (Histamine H3 receptor): > 30 µM | AC50 [9]: > 30 µM

Cc1cc(C(C)(C)C)c(O)c(C)c1CC1=NCCN1 [OXYMETAZOLINE]
AC50 (Mu-type opioid receptor): > 30 µM | AC50 [8]: > 30 µM | AC50 (Androgen receptor [7]): > 30 µM | AC50 [9]: > 30 µM

C[C@H]1COc2c(C3(N)CC3)c(F)cc3c(=O)c(C(=O)O)cn1c23 [PAZUFLOXACIN]
AC50 [1]: > 10 µM | AC50 [2]: > 10 µM | AC50 (Mu-type opioid receptor): > 30 µM | AC50 [3]: > 10 µM | AC50 [5]: > 10 µM | AC50 [6]: > 30 µM | AC50 (Melanocortin receptor 4): > 10 µM | AC50 (Cannabinoid receptor 1): > 10 µM

C[C@@H]1O[C@@H](O[C@@H]2C=C3CC[C@@H]4[C@H](CC[C@]5(C)[C@@H](c6ccc(=O)oc6)CC[C@]45O)[C@@]3(C)CC2)[C@H](O)[C@H](O)[C@H]1O [PROSCILLARIDIN]
AC50 [8]: > 30 µM | AC50 (Androgen receptor [4]): > 30 µM | AC50 (Androgen receptor [7]): > 30 µM | AC50 (Histamine H3 receptor): > 30 µM

CC/C(=C(\c1ccccc1)c1ccc(OCCN(C)C)cc1)c1ccccc1 [TAMOXIFEN]
AC50 [11]: 0.896 µM | AC50 (Mu-type opioid receptor): > 30 µM | AC50 [3]: > 10 µM | AC50 [5]: 13.6 µM | AC50 (Histamine H2 receptor): 1.75 µM | AC50 (Histamine H3 receptor): > 30 µM

C#C[C@]1(O)CC[C@H]2[C@@H]3[C@H](C)CC4=C(CCC(=O)C4)[C@H]3CC[C@@]21C [TIBOLONE]
AC50 [8]: > 30 µM | AC50 (Histamine H3 receptor): > 30 µM

COc1cccc(C2(O)CCCCC2CN(C)C)c1 (stereo not given) [TRAMADOL]
AC50 [11]: > 10 µM | AC50 [3]: > 10 µM | AC50 [8]: > 30 µM | AC50 [5]: > 10 µM | AC50 (Histamine H2 receptor): > 10 µM | AC50 (Melanocortin receptor 4): > 30 µM | AC50 (Histamine H3 receptor): > 10 µM | AC50 (Cannabinoid receptor 1): > 10 µM

Cc1nnc2n1-c1ccc(Cl)cc1C(c1ccccc1Cl)=NC2 [TRIAZOLAM]
AC50 [1]: > 10 µM | AC50 [2]: > 30 µM | AC50 (Mu-type opioid receptor): > 30 µM | AC50 [3]: > 10 µM | AC50 [5]: > 10 µM | AC50 [6]: > 30 µM | AC50 (Melanocortin receptor 4): > 30 µM | AC50 (Histamine H3 receptor): > 10 µM

CC1(C)CCC(CN2CCN(c3ccc(C(=O)NS(=O)(=O)c4ccc(NCC5CCOCC5)c([N+](=O)[O-])c4)c(Oc4cnc5[nH]ccc5c4)c3)CC2)=C(c2ccc(Cl)cc2)C1 [VENETOCLAX]
AC50 [8]: > 30 µM | AC50 (Androgen receptor [7]): > 30 µM
